What was measured:
ACHN = assay: NCI one-dose screening, renal cancer ACHN; assay type: cell-based, human; details: 10 μM
NCI-H226 = assay: NCI one-dose screening, non-small cell lung cancer NCI-H226; assay type: cell-based, human; details: 10 μM
BT-549 = assay: NCI one-dose screening, breast cancer BT-549; assay type: cell-based, human; details: 10 μM
PRMI-8226 cell line = assay: NCI one-dose screening, leukemia PRMI-8226; assay type: cell-based, human; details: 10 μM
NCI-H522 = assay: NCI one-dose screening, non-small cell lung cancer NCI-H522; assay type: cell-based, human; details: 10 μM
[1] = NCI one-dose screening, renal cancer A489; assay type: cell-based, human; details: 10 μM
NCI-H460 = assay: NCI one-dose screening, non-small cell lung cancer NCI-H460; assay type: cell-based, human; details: 10 μM
HOP-92 = assay: NCI one-dose screening, non-small cell lung cancer HOP-92; assay type: cell-based, human; details: 10 μM
[2] = test system: PC-3 prostate cancer cell line; assay: SRB assay cell viability, PC-3 prostate cancer cell line; assay type: cell-based, human; details: Homo sapiens, PC-3 prostate cancer cell line, Table II prints no unit, μM printed, read-out: SRB assay: 50% inhibition of cancer cell proliferation of sample concentration (IC50) of PC-3 prostate cancer cell line
HOP-62 = assay: NCI one-dose screening, non-small cell lung cancer HOP-62; assay type: cell-based, human; details: 10 μM
UACC-257 = assay: NCI one-dose screening, melanoma UACC-257; assay type: cell-based, human; details: 10 μM
DU145 = assay: NCI one-dose screening, prostate cancer DU145; assay type: cell-based, human; details: 10 μM
OVCAR-5 = assay: NCI one-dose screening, ovarian cancer OVCAR-5; assay type: cell-based, human; details: 10 μM
human tumor cell lines = assay: NCI one-dose screening, Mean / Delta / Range of growth percent over all tested cell lines; assay type: cell-based; details: 10 μM
A549/ATCC = assay: NCI one-dose screening, non-small cell lung cancer A549/ATCC; assay type: cell-based, human; details: 10 μM
NCl/ADR-RES = assay: NCI one-dose screening, breast cancer NCl/ADR-RES; assay type: cell-based, human; details: 10 μM; listed under Ovarian cancer
HCT-15 = assay: NCI one-dose screening, colon cancer HCT-15; assay type: cell-based, human; details: 10 μM
M14 = assay: NCI one-dose screening, melanoma M14; assay type: cell-based, human; details: 10 μM
OVCAR-3 = assay: NCI one-dose screening, ovarian cancer OVCAR-3; assay type: cell-based, human; details: 10 μM
786-O = assay: NCI one-dose screening, renal cancer 786-O; assay type: cell-based, human; details: 10 μM
T-47D = assay: NCI one-dose screening, breast cancer T-47D; assay type: cell-based, human; details: 10 μM
UACC-62 = assay: NCI one-dose screening, melanoma UACC-62; assay type: cell-based, human; details: 10 μM
OVCAR-8 = assay: NCI one-dose screening, ovarian cancer OVCAR-8; assay type: cell-based, human; details: 10 μM
K562cell line = assay: NCI one-dose screening, leukemia K562; assay type: cell-based, human; details: 10 μM
SK-MEL-5 = assay: NCI one-dose screening, melanoma SK-MEL-5; assay type: cell-based, human; details: 10 μM
SK-OV-3 = assay: NCI one-dose screening, ovarian cancer SK-OV-3; assay type: cell-based, human; details: 10 μM
SNB-75 = assay: NCI one-dose screening, CNS cancer SNB-75; assay type: cell-based, human; details: 10 μM
LOX IMVI = assay: NCI one-dose screening, melanoma LOX IMVI; assay type: cell-based, human; details: 10 μM
KM12 = assay: NCI one-dose screening, colon cancer KM12; assay type: cell-based, human; details: 10 μM
SK-MEL-2 = assay: NCI one-dose screening, melanoma SK-MEL-2; assay type: cell-based, human; details: 10 μM
SNB-19 = assay: NCI one-dose screening, CNS cancer SNB-19; assay type: cell-based, human; details: 10 μM
TK-10 = assay: NCI one-dose screening, renal cancer TK-10; assay type: cell-based, human; details: 10 μM
EKVX = assay: NCI one-dose screening, non-small cell lung cancer EKVX; assay type: cell-based, human; details: 10 μM
SF-539 = assay: NCI one-dose screening, CNS cancer SF-539; assay type: cell-based, human; details: 10 μM
RXF, 393 = assay: NCI one-dose screening, renal cancer RXF, 393; assay type: cell-based, human; details: 10 μM
U251 = assay: NCI one-dose screening, CNS cancer U251; assay type: cell-based, human; details: 10 μM
NCI-H23 = assay: NCI one-dose screening, non-small cell lung cancer NCI-H23; assay type: cell-based, human; details: 10 μM
IGROV1 = assay: NCI one-dose screening, ovarian cancer IGROV1; assay type: cell-based, human; details: 10 μM
SK-MEL-28 = assay: NCI one-dose screening, melanoma SK-MEL-28; assay type: cell-based, human; details: 10 μM
MCF7 = assay: NCI one-dose screening, breast cancer MCF7; assay type: cell-based, human; details: 10 μM
MDA-MB-231/ATCC = assay: NCI one-dose screening, breast cancer MDA-MB-231/ATCC; assay type: cell-based, human; details: 10 μM
PC-3 = assay: NCI one-dose screening, prostate cancer PC-3; assay type: cell-based, human; details: 10 μM
SN12C = assay: NCI one-dose screening, renal cancer SN12C; assay type: cell-based, human; details: 10 μM
HS 578-T = assay: NCI one-dose screening, breast cancer HS 578-T; assay type: cell-based, human; details: 10 μM; Breast cancer
COLO 205 = assay: NCI one-dose screening, colon cancer COLO 205; assay type: cell-based, human; details: 10 μM
SR = assay: NCI one-dose screening, leukemia SR; assay type: cell-based, human; details: 10 μM
MOLT-4 = assay: NCI one-dose screening, leukemia MOLT-4; assay type: cell-based, human; details: 10 μM
UO-31 = assay: NCI one-dose screening, renal cancer UO-31; assay type: cell-based, human; details: 10 μM
MALME-3M = assay: NCI one-dose screening, melanoma MALME-3M; assay type: cell-based, human; details: 10 μM
HCC-2998 = assay: NCI one-dose screening, colon cancer HCC-2998; assay type: cell-based, human; details: 10 μM
MDA, -MB-435 = assay: NCI one-dose screening, breast cancer MDA, -MB-435; assay type: cell-based, human; details: 10 μM; listed under Melanoma
HL-60, TB = assay: NCI one-dose screening, leukemia HL-60, TB; assay type: cell-based, human; details: 10 μM
HCT-116 = assay: NCI one-dose screening, colon cancer HCT-116; assay type: cell-based, human; details: 10 μM
SF-268 = assay: NCI one-dose screening, CNS cancer SF-268; assay type: cell-based, human; details: 10 μM
MDA-MB-468 = assay: NCI one-dose screening, breast cancer MDA-MB-468; assay type: cell-based, human; details: 10 μM
HT29 = assay: NCI one-dose screening, colon cancer HT29; assay type: cell-based, human; details: 10 μM

Cc1ccc(Sc2cc3c(c4nsnc24)C(=O)c2ccccc2C3=O)c(C)c1 [C25, 4-(2,4-dimethylphenylthio)anthra[2,1-c] [1,2,5]thiadiazol-6,11-dione]
Growth Percent ACHN (ACHN): 94.24%
Growth Percent NCI-H226 (NCI-H226): 01.50%
Growth Percent BT-549 (BT-549): 94.55%
Growth Percent RPMI-8226 (PRMI-8226 cell line): 85.14%
Growth Percent NCI-H522 (NCI-H522): 96.81%
Growth Percent A498 [1]: 84.37%
Growth Percent NCI-H460 (NCI-H460): 102.01%
Growth Percent HOP-92 (HOP-92): 97.83%
IC50 [2]: > 15 µM
Growth Percent HOP-62 (HOP-62): 79.34%
Growth Percent UACC-257 (UACC-257): 121.93%
Growth Percent DU145 (DU145): 109.69%
Growth Percent OVCAR-5 (OVCAR-5): 106.46%
Growth Percent Delta (human tumor cell lines; delta over all cell lines): 31.54%
Growth Percent Mean (human tumor cell lines; mean over all cell lines): 97.26%
Growth Percent Range (human tumor cell lines; range over all cell lines): 61.39%
Growth Percent A549/ATCC (A549/ATCC): 109.80%
Growth Percent NCI/ADR-RES (NCl/ADR-RES): 97.75%
Growth Percent HCT-15 (HCT-15): 83.04%
Growth Percent M14 (M14): 100.77%
Growth Percent OVCAR-3 (OVCAR-3): 105.38%
Growth Percent 786-0 (786-O): 105.11%
Growth Percent T-47D (T-47D): 75.36%
Growth Percent UACC-62 (UACC-62): 94.50%
Growth Percent OVCAR-8 (OVCAR-8): 104.59%
Growth Percent K562 (K562cell line): 67.97%
Growth Percent SK-MEL-5 (SK-MEL-5): 109.99%
Growth Percent SK-OV-3 (SK-OV-3): 110.36%
Growth Percent SNB-75 (SNB-75): 76.05%
Growth Percent LOX IMVI (LOX IMVI): 90.38%
Growth Percent KM12 (KM12): 96.42%
Growth Percent SK-MEL-2 (SK-MEL-2): 98.52%
Growth Percent SNB-19 (SNB-19): 102.33%
Growth Percent TK-10 (TK-10): 127.11%
Growth Percent EKVX (EKVX): 108.79%
Growth Percent SF-539 (SF-539): 100.22%
Growth Percent RXF 393 (RXF, 393): 105.93%
Growth Percent U251 (U251): 104.99%
Growth Percent NCI-H23 (NCI-H23): 89.40%
Growth Percent IGROV1 (IGROV1): 95.00%
Growth Percent SK-MEL-28 (SK-MEL-28): 118.64%
Growth Percent MCF7 (MCF7): 79.77%
Growth Percent MDA-MB-231/ATCC (MDA-MB-231/ATCC): 92.27%
Growth Percent PC-3 (PC-3): 76.11%
Growth Percent SN12C (SN12C): 98.68%
Growth Percent HS 578T (HS 578-T): 99.06%
Growth Percent COLO 205 (COLO 205): 106.63%
Growth Percent SR (SR): 70.26%
Growth Percent MOLT-4 (MOLT-4): 91.01%
Growth Percent UO-31 (UO-31): 65.72%
Growth Percent MALME-3M (MALME-3M): 108.23%
Growth Percent HCC-2998 (HCC-2998): 121.23%
Growth Percent MDA-MB-435 (MDA, -MB-435): 105.58%
Growth Percent HL-60(TB) (HL-60, TB): 99.93%
Growth Percent HCT-116 (HCT-116): 94.55%
Growth Percent SF-268 (SF-268): 90.61%
Growth Percent MDA-MB-468 (MDA-MB-468): 100.45%
Growth Percent HT29 (HT29): 101.47%

Source: patent US8877748B2, “Heterocyclic fused anthraquinone derivatives, manufacturing method and pharmaceutical composition using thereof” (National Defense Medical Center, priority 2012, dated 2014)
